Common to all, as to type: cell-based
The target in experiment [1] is Adenylate cyclase type 1 (Homo sapiens) (UniProt Q08828). The experiment is described as follows: Agonist activity at recombinant human AC1 expressed in human HEK293 cells assessed as increase in cAMP level at 50 uM by LANCE Ultra cAMP Detection kit.
Experiment [2] addresses T1, Adenylate cyclase type 8 (Homo sapiens, UniProt P40145). The experiment is described as follows: Agonist activity at recombinant human AC8 expressed in human HEK293 cells assessed as fold increase in cAMP level by LANCE Ultra cAMP Detection kit method. A general note: Cyclic AMP is a second messenger, typically raised through Gs and lowered through Gi signalling.
Experiment [3] addresses Adenylate cyclase type 5 (Homo sapiens) (UniProt O95622). In words: Agonist activity at recombinant human AC5 expressed in human HEK293 cells assessed as increase in cAMP level at 50 uM by LANCE Ultra cAMP Detection kit method.
In experiment [4] the target is T1, Adenylate cyclase type 8. The experiment is described as follows: Agonist activity at recombinant human AC8 expressed in human HEK293 cells assessed as fold increase in cAMP level at 50 uM by LANCE Ultra cAMP Detection kit method relative to control.
Experiment [5] deals with Adenylate cyclase type 2 (Homo sapiens) (UniProt Q08462). The experiment is described as follows: Agonist activity at recombinant human AC2 expressed in human HEK293 cells assessed as increase in cAMP level at 50 uM by LANCE Ultra cAMP Detection kit method.
Sequence of Adenylate cyclase type 2 (Homo sapiens) (Q08462 whole entry): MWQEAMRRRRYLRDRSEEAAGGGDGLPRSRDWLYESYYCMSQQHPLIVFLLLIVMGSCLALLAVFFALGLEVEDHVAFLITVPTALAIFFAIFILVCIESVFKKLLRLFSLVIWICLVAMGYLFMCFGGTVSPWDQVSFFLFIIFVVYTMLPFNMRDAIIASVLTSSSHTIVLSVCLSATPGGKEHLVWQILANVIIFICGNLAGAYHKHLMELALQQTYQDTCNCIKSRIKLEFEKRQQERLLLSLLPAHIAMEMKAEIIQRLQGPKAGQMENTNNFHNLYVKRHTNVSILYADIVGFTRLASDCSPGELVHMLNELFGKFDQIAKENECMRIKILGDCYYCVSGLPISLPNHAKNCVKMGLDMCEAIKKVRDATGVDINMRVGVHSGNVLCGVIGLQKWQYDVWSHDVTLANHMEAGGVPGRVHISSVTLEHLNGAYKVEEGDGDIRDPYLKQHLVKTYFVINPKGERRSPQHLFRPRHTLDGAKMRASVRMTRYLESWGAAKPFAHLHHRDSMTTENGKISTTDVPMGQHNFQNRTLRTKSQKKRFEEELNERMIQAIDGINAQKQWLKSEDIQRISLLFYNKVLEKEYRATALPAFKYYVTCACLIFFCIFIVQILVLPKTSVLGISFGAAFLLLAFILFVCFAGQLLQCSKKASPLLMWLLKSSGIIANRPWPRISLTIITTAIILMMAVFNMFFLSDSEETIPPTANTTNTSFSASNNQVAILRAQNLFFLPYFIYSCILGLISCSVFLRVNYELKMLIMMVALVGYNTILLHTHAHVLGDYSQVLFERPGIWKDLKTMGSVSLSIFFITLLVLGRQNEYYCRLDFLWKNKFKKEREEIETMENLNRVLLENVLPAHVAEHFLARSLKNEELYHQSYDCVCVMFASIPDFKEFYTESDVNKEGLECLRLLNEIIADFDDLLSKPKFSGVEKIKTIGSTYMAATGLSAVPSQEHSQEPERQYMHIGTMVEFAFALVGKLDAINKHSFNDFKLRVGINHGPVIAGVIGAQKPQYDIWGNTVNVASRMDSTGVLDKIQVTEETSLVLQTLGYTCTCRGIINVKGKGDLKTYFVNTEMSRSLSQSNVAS

Each structure is given as a SMILES string. The source made the active and inactive calls. The rule behind the calls is not given here.

This is an account of results in ChEMBL document CHEMBL4602624, “Discovery of a potent and selective adenylyl cyclase type 8 agonist by docking-based virtual screening” (Bioorg Med Chem Lett, 2020).

T1 sequence (P40145 whole entry): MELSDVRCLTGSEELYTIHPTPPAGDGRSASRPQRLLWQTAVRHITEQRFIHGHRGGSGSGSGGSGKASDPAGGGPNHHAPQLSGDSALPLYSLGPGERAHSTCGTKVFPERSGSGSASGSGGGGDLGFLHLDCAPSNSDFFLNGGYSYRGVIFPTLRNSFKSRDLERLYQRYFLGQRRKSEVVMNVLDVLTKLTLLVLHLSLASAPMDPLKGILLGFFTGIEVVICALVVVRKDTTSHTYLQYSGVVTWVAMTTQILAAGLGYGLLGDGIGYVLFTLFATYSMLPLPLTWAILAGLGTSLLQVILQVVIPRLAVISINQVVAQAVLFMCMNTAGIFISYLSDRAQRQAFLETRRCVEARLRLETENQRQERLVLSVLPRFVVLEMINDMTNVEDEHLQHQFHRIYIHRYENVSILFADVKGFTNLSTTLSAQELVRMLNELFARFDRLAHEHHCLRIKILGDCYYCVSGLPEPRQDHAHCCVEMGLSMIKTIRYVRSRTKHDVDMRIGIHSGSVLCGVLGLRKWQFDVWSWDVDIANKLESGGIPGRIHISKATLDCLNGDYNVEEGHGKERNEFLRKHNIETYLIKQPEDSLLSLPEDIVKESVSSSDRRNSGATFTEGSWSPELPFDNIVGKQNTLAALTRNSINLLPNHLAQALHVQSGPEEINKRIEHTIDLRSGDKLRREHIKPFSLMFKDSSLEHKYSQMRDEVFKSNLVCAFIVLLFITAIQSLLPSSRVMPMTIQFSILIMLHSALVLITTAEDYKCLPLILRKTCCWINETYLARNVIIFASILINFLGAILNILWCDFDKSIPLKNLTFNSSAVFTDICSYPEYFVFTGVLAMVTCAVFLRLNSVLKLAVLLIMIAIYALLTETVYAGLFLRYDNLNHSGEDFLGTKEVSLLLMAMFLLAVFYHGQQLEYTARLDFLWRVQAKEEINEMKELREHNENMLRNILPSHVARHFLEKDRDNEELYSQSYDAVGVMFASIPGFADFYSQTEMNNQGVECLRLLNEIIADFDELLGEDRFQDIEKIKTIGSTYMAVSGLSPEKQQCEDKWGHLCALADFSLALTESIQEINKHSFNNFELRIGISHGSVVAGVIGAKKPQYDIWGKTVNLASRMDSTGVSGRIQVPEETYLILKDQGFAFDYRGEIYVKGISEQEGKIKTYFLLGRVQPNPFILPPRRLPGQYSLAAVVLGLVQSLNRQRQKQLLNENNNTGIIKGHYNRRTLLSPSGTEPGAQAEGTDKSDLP
Sequence of Adenylate cyclase type 5 (Homo sapiens) (O95622 whole entry, looked up): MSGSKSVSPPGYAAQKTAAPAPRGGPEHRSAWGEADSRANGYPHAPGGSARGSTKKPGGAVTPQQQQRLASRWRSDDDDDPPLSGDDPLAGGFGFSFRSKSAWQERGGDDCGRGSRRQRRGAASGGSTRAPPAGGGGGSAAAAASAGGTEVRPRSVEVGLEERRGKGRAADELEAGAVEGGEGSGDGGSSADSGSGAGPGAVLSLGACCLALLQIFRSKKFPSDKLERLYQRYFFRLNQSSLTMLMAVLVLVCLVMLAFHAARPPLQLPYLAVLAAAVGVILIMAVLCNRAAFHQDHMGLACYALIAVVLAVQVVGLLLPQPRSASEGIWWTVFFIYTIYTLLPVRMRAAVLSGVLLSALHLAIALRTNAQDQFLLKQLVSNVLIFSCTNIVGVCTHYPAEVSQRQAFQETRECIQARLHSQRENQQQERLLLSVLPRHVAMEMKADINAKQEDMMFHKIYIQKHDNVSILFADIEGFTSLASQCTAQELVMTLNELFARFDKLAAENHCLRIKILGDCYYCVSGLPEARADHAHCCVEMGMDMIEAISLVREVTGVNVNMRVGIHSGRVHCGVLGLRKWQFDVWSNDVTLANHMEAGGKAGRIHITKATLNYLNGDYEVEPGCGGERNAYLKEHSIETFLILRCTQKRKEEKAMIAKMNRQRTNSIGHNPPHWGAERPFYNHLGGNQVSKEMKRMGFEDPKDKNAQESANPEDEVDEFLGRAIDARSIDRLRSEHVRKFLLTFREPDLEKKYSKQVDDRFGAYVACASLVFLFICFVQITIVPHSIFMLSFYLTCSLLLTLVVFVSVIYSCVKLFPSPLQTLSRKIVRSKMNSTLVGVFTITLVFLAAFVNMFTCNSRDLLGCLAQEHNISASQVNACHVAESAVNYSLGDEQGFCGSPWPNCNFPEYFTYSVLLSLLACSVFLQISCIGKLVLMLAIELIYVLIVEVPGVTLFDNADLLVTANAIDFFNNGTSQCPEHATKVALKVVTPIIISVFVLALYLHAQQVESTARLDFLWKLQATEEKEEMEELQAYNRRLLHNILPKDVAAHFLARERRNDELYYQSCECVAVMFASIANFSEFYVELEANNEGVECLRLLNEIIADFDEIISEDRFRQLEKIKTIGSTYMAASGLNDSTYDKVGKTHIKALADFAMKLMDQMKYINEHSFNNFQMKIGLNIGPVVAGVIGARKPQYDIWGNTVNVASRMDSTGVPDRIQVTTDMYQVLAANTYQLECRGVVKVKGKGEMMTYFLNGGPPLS
Sequence of Adenylate cyclase type 1 (Homo sapiens) (Q08828 whole entry, looked up): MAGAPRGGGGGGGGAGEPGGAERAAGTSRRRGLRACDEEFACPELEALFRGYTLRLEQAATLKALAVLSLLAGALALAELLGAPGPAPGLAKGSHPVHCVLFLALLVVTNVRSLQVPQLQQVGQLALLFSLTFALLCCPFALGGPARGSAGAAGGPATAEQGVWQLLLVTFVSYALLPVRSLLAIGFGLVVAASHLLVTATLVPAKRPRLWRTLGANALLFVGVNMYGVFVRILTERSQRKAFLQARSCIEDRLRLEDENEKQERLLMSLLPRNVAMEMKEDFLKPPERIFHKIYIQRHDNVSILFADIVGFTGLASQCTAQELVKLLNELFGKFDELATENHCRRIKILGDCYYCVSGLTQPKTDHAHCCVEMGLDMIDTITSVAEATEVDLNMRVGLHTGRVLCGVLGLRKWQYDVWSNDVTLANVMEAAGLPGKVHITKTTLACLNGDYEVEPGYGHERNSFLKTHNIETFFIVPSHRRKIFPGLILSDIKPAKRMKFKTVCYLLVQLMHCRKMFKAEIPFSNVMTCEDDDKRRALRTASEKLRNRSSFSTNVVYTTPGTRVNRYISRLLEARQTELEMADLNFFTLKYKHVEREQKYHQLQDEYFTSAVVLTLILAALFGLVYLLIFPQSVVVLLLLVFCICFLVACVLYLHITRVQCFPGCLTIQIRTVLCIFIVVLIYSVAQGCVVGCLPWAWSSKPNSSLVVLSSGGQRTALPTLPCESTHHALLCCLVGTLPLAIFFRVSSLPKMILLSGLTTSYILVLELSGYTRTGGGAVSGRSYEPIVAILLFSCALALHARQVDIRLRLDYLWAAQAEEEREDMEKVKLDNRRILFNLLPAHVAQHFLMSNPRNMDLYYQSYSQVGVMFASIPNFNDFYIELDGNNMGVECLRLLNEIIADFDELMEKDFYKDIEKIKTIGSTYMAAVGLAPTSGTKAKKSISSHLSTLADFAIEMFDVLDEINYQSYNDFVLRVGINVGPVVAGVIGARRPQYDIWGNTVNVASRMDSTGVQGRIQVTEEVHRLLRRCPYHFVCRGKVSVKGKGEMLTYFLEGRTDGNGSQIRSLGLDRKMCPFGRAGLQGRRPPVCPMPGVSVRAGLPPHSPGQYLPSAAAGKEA

Consider `CCOC(=O)C1(Cc2ccc(Cl)cc2Cl)C(=O)Nc2ccccc21` (stereo not drawn), for which the outcome in experiment [1], in experiment [3] and in experiment [5] was inactive. Further, the Activity result at Adenylate cyclase type 8 [2] is “Dose-dependent effect”. For the same compound, at Adenylate cyclase type 8 [2], the EC50 (as a rule, the concentration needed to bring the measured effect to its halfway point) is 105 nM. The fold change (FC) at Adenylate cyclase type 8 [4] worked out at 33.

For `C=C[C@@]1(C)CC(=O)[C@]2(O)[C@@]3(C)[C@@H](O)CCC(C)(C)[C@@H]3[C@H](O)[C@H](OC(C)=O)[C@@]2(C)O1` [COLFORSIN], the EC50 at Adenylate cyclase type 8 [2] was determined as 93.7 nM. The fold change (FC) at Adenylate cyclase type 8 [4] came to 35.
